SMILES strings stand for the structures. “Also recorded” adds a separate entry of the source.

One experiment concerns the target T1, STAT5b SH2 domain (Homo sapiens, UniProt P51692).
T1 sequence (P51692 1-787): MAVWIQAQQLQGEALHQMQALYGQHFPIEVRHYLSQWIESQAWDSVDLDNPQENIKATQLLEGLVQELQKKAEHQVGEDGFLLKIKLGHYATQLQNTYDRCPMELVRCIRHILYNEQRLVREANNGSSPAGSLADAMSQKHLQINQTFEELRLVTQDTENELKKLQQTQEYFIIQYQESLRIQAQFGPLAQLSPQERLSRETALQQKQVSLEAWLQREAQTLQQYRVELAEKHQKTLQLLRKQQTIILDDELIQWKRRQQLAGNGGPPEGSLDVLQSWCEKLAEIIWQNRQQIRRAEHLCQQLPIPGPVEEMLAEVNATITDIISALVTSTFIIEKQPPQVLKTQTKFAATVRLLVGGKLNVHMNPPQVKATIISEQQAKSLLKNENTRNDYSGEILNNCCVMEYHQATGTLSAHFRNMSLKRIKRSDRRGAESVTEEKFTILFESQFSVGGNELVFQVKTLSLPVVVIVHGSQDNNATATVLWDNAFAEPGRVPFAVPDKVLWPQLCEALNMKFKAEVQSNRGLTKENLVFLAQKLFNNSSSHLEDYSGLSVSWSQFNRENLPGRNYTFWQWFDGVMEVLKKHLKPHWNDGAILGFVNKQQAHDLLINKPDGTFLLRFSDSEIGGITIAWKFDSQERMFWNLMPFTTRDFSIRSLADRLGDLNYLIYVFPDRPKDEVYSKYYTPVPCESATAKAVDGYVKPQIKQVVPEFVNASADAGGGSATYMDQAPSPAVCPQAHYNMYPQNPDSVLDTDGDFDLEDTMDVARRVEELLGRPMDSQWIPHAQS
Briefly: Fluorescence polarization assay, STAT5b SH2 domain. It counts as binding. The settings on record: for Ki: converted from IC50 using the published equation, n = 3; for Ki / IC50: mean ± s.d.; for IC50: fluorescence polarization, three independent experiments. Background: Polarisation of emitted light reports the rotation of a fluorescent probe.

Experiment [1] concerns STAT5b-GFP. Kind of experiment: STAT5b Tyr699 phosphorylation in STAT5b-GFP-transfected K562 cells (Western blot). It counts as cell-based, human. The settings on record: STAT5b-GFP-transfected K562 cells, 4 h, result in words. (In general: Immunoblotting shows a protein as a band on a membrane.)
The test system of a further experiment is STAT5a-GFP. Kind of experiment: STAT5a Tyr694 phosphorylation in STAT5a-GFP-transfected K562 cells (Western blot). As to conditions: 4 h, result in words. In kind it is cell-based, human.
The next experiment relates to K562 cells. Kind of experiment: Apoptosis assay (Annexin V / 7-AAD flow cytometry), K562 cells. It counts as cell-based, human. As to conditions: untransfected K562 cells, 48 h, result in words. (Flow cytometry measures light scatter and fluorescence of single cells or particles in a stream.)
Experiment [2] has as its target T2, STAT5b-GFP (Homo sapiens, UniProt P51692).
T2 sequence (P51692 1-787): T1 sequence (P51692 1-787)
Briefly: STAT5b Tyr699 phosphorylation in STAT5b-GFP-transfected K562 cells (Western blot). As to conditions: STAT5b-GFP-transfected K562 cells. It counts as cell-based.

A further experiment relates to MDA-MB-231 cells. Kind of experiment: Apoptosis assay (Annexin V / 7-AAD flow cytometry), MDA-MB-231 cells. As to conditions: MDA-MB-231 cells (STAT5-independent), 48 h, result in words. In kind it is cell-based.
In a further experiment the test system is endogenous STAT5. Briefly: Tyrosine phosphorylation of endogenous total STAT5 in STAT5a/b-GFP-transfected K562 cells. The settings on record: result in words. It counts as cell-based, human.
In the next experiment the target is T3, STAT5a SH2 domain (Homo sapiens, UniProt P42229).
T3 sequence (P42229 1-794): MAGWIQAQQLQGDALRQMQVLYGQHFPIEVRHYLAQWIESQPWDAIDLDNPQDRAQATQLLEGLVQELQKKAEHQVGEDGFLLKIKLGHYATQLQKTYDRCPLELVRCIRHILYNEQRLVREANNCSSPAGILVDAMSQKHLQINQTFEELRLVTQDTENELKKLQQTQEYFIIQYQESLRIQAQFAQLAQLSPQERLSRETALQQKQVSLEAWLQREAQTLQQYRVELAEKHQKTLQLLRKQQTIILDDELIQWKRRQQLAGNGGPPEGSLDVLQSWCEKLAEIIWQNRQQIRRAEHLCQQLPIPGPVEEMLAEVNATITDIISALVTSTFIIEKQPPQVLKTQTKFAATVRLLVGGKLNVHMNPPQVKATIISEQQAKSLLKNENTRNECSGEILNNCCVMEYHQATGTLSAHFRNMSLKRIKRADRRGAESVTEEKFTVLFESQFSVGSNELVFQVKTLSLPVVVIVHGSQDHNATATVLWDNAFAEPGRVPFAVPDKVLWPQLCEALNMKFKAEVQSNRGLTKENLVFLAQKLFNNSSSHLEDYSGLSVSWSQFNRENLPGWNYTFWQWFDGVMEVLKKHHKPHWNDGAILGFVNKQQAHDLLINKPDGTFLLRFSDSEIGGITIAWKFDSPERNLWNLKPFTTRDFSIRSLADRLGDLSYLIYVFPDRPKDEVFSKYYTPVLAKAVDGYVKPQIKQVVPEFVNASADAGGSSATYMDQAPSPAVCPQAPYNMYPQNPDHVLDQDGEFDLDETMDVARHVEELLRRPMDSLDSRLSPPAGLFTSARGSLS
Briefly: Fluorescence polarization assay, STAT5a SH2 domain. It counts as binding. As to conditions: mean ± s.d.; for Ki: converted from IC50 using the published equation, n = 3; for IC50: fluorescence polarization, three independent experiments.

For `O=C(COc1ccc(C(=O)Nc2ccc(Oc3ccccc3)cc2)cc1)NCc1ccc(O)c(O)c1` [compound 7], the STAT5b inhibition result on STAT5b SH2 domain (at 80 µM) was “lack of activity; also recorded: no inhibition at 80 µM”.

For `CC(C)(C)C(=O)OCOP(=O)(Cc1ccccc1CP(=O)(OCOC(=O)C(C)(C)C)OCOC(=O)C(C)(C)C)OCOC(=O)C(C)(C)C` [compound 9, reference compound], the “inhibition of STAT5b phosphorylation” value in the experiment with STAT5b-GFP [1] was “lack of inhibition”. Further, the “inhibition of STAT5a phosphorylation” value in the experiment on STAT5a-GFP was “lack of inhibition”.

Turning to `CC(C)(C)C(=O)OCOP(=O)(OCOC(=O)C(C)(C)C)Oc1ccc(CNC(=O)COc2ccc(C(=O)Nc3ccc(Oc4ccccc4)cc3)cc2)cc1OP(=O)(OCOC(=O)C(C)(C)C)OCOC(=O)C(C)(C)C` [compound 8, ((((4-((2-(4-((4-Phenoxyphenyl)carbamoyl)phenoxy)acetamido)methyl)-1,2-phenylene)bis(oxy))bis(oxo-l5-phosphanetriyl))tetrakis(oxy))tetrakis(methylene) tetrakis(2,2-dimethylpropanoate)], the apoptotic rate result in the experiment with K562 cells was “dose-dependent increase; also recorded: increased”; in the experiment with MDA-MB-231 cells, “does not increase; also recorded: not increased”. Also, the “fold more active against STAT5b phosphorylation than the pivaloyloxymethylesters of 2 and of Capstafin” value on STAT5b-GFP [2] came to 2.5 fold. For the same compound, the “inhibition of STAT5b phosphorylation” value at STAT5b-GFP [2] (4 h, result in words) is “Dose-dependent inhibition”. Besides, the entries for the “inhibition of STAT5a phosphorylation” value in the experiment with STAT5a-GFP and with STAT5a-GFP (listed as Pomstafib-2) were “not significantly reduced; also recorded: not inhibited” and “without significantly affecting”, respectively. Also, the “inhibition of phosphorylation of endogenous STAT5” value with endogenous STAT5 was “inhibited”.

The Ki is the dissociation constant of the complex between target and ligand, obtained from inhibition or displacement. The term IC50 denotes the concentration that inhibits the measured activity by half. Lower therefore signals greater potency in that assay. Take `O=C(COc1ccc2cc(C(=O)Nc3ccc(Oc4ccccc4)cc3)ccc2c1)NCc1ccc(OP(=O)(O)O)c(OP(=O)(O)O)c1` [compound 3]: the “fold less active than 2” value at STAT5b SH2 domain (STAT5b Ki relative to 2) was found to be 2 fold. In addition, at STAT5b SH2 domain, affinity was put at a Ki of 0.093 ± 0.003 µM and the IC50 was determined as 0.19 ± 0.01 µM. On STAT5a SH2 domain, this compound showed an inhibition constant (Ki) of 2.9 ± 0.1 µM and an IC50 of 5.8 ± 0.3 µM.

On STAT5b SH2 domain, `O=C(COc1ccc(C(=O)Nc2ccccc2)cc1)NCc1ccc(OP(=O)(O)O)c(OP(=O)(O)O)c1` [compound 5] registered a Ki of 0.11 ± 0.01 µM and an IC50 of 0.28 ± 0.01 µM. In addition, on STAT5a SH2 domain, the Ki is 4.8 ± 0.1 µM and the IC50 is 9.7 ± 0.3 µM.
